Experimental data as given in patent publication US20060046009A1, “Optical disk” (TDK Corporation, priority 2004, published 2006).

Assay: Solubility of the cyanine dyes in 2,2,3,3-tetrafluoro-1-propanol
Format: physicochemical
Settings: in 2,2,3,3-tetrafluoro-1-propanol (TFP)
From the text: FIGS. 1 and 2 are schematic fragmentary sectional views showing the vicinities of grooves in the optical disks according to Example 1 (counter ion: PF6^−) and Comparative Example 2 (counter ion: I^−), respectively. […] Thus, the optical disk in Example 1 has more uniform dye

**Q.** With `CN1/C(=C/C=C/C2=[N+](C)c3ccc4ccccc4c3C2(C)Cc2ccccc2)C(C)(C)c2c1ccc1ccccc21` (centres unmarked) [Example 2] as the molecule, how does the “Solubility in TFP” value read?
**A.** 8 mg/mL

**Q.** For `CN1/C(=C/C=C/C2=[N+](C)c3c(ccc4ccccc34)C2(C)C)C(C)(C)c2cc(Cl)ccc21` [Example 1], which “Solubility in TFP” value is on record?
**A.** 15 mg/mL
